We go through 2 substances from patent publication US11857601B2, “Pharmaceutical composition for cancer treatment comprising fusion protein including IL-2 protein and CD80 protein and anticancer drug” (GI INNOVATION, INC., priority 2020, dated 2024).

Marks after values point to notes of the source that are not given here.

For test [1], the system named is CT26 (mouse colon carcinoma) cells. The experiment in a line: mGI-101 and Galunisertib in CT26 allotransplanted tumor model. The class given is in vivo, BALB/cAnHsd mice. The settings on record: mean ± SD, mGI-101 3 mg/kg IP, Galunisertib 75 mg/kg PO. As for the experimental part:
6-week-old male BALB/cAnHsd mice were purchased and used for the test.
The tumor size was measured three times a week for 3 weeks from the day of start of administration of the test substance. The major axis and minor axis of the tumor were measured using a caliper, and the tumor size (tumor volume, TV) was calculated using the following equations. TV (mm^3)=(W^2×L)/2 [Equation 1]

For another test, the system named is CT26 cells. The experiment in a line: mGI-101 and Lenvatinib in CT26 allotransplanted tumor model. Type of test: in vivo, BALB/c mice. The settings on record: end of the experiment, 10 mice per group. As for the experimental part:
CT26 cells were purchased from ATCC (USA) and cultured in RPMI1640 medium (Gibco) containing 10% FBS (Gibco) and 1% antibiotic/antifungal agent (Gibco). The cultured cells were harvested using trypsin (Gibco) and then suspended in PBS. In order to establish an allotransplanted tumor model, 1×10^6 CT26 cells were subcutaneously injected into the right flank of BALB/c female mice (7-week-old).
A certain period of time after the cell transplantation, the tumor volume was measured for animals with no abnormalities in the health condition of the animals, and the mice were assigned so that the average tumor volume of each group was less than 70-100 mm^3, each group including 10 mice.
In the case of Lenvatinib powder, the dose was calculated and weighed, and it was prepared to the dose concentration using a 0.5% methyl cellulose excipient. In order to minimize the loss of the test substance, the doses for 3 or 4 days were weighed, and prepared using the excipient on the day of administration and injected.
(§1) Clinical symptoms such as a disease and a behavioral change were observed once a day during the test period, and deceased animals were identified, and the mice were sacrificed when the tumor size reached a size of 4,000 mm^3.
The tumor volume before administration of each subject was set as the value measured at the time of grouping.
(§2) All statistical calculations were performed using Prism 8.0 (Graph Pad Software Inc, USA). The comparison of tumor volume measurements was made through two-way analysis of variance followed by Tukey's multiple comparison test. A p value of less than 0.05 was considered significant.

The subject of a further test is EMT6 cells. The experiment in a line: mGI-101 and Paclitaxel in EMT6 allotransplanted tumor model. Type of test: in vivo, BALB/c mice. As for the experimental part:
EMT6 cells were purchased from ATCC (USA) and cultured in Waymouth MB 751/1 medium (WELGENE) containing 10% FBS (Gibco) and 1% antibiotic/antifungal agent (Gibco). The cultured cells were harvested using trypsin (Gibco), and then a high-concentration cell suspension (2×10^6 cells/0.4 mL) for 10 mice was prepare with PBS and stored on ice until injected into mice. In order to establish an allotransplanted tumor model, the skin was incised slightly away from the 4th nipple position from the upper right of the ventral region of BALB/c female mice (7-week-old), and the location of mammary fat pad at the incised site was identified, and then EMT6 cell line prepared inside the mammary fat pad was injected at 2×10^5 cells/40 uL/head.
A certain period of time after cell inoculation of the tumor grafts of the mice, the tumor volume was measured for animals with no abnormalities in the health condition of the animals, and the subjects were selected so that the average of each group reached less than 70-100 mm^3, and the selected animals were assigned as evenly as possible based on tumor volume and body weight, each group including 10 animals. As shown in Table 24 and FIG. 106, the test groups were configured and the test substances were administered.
as §1
The tumor volume before administration of each subject was set as the value measured at the time of grouping, and the anti-tumor efficacy was evaluated as compared with the vehicle control.
as §2

Test [2] concerns CD8+ T cells and CD4+/FoxP3+ Treg cells. The experiment in a line: Proliferation of CD8+ T cells and Treg cells in PBMCs (Exp. Ex. 10). Type of test: cell-based, human. As for the experimental part: Human PBMCs were purchased from Allcells (Lot #3014928, USA). […] CellTrace CFSE dye was used, which was reacted with the human PBMCs under a light-blocking condition at […] for 20 minutes. The cells were labeled with CFSE by being reacted with 1 μM CellTrace CFSE dye at 37° C. for 20 minutes. CFSE not bound to the cells was removed by being reacted for 5 minutes with a culture medium having a 5-fold volume of the staining reaction solution and then by being centrifuged at 1,300 rpm for 5 minutes. The CFSE-labeled PBMCs were resuspended in the culture medium (RPMI1640 medium containing 10% fetal bovine serum, 10 mM HEPES, 100 U/ml penicillin/streptomycin, 1 mM sodium pyruvate, 55 μM 2-mercaptoethanol, 1 mM non-essential amino acid, and 2 mM L-glutamine), and then added to a 96-well microplate at 1×10^5 cells per well.
The incubated cells were examined for their degree of proliferation by measuring, with FACS analysis using anti-human CD4-PE antibody (BioLegend, USA), anti-human CD8-PE/Cy7 antibody (BioLegend, USA), and anti-human FoxP3-APC antibody (BioLegend, USA), a proportion of CD8+ T cells that had not been labeled with CFSE.

As for “mGI101: fusion protein: mouse CD80, Ig hinge, Fc domain, linker, IL-2 variant (2M) (R38A, F42A); SEQ ID NO: 15”, the Tumor size was 61.96 ± 11.81 mm^3 in test [1] (Day 0), 177.83 ± 78.22 mm^3 in test [1] (Day 2), 224.56 ± 105.31** mm^3 in test [1] (Day 4) and 291.81 ± 155.23 (9)* mm^3 in test [1] (Day 7). Moreover, the results for the Tumor growth inhibition in test [1] (Day 2), in test [1] (Day 4) and in test [1] (Day 7) were 21.91 ± 53.41%, 46.07 ± 35.1 % and 46.48 ± 36.39 (9) %, respectively. Also, the “number of mice with tumor growth inhibition rate of 30% or more” value came out at 6 mice in the test on CT26 cells and 6 mice with EMT6 cells (EMT6, 10 animals per group). For the same substance, the “number of mice with tumor growth inhibition rate of 50% or more” value in the test with CT26 cells stood at 2 mice; in the test on EMT6 cells (EMT6, 10 animals per group), 5 mice. The “number of mice with tumor growth inhibition rate of 80% or more” value was determined as 1 mice with CT26 cells and 5 mice in the test with EMT6 cells (EMT6, 10 animals per group). Moreover, the “tumor size level vs control” value in the test on EMT6 cells (day 11, mGI-101 3 mg/kg i.v. QW, Paclitaxel 10 mg/kg i.p. 7 consecutive days) is reported as “statistically significantly lower”. Moreover, in the test on EMT6 cells (day 13, 10 animals per group), the “mice with complete remission” value was 2 mice. The “tumor size vs control” value with EMT6 cells (day 13, mGI-101 3 mg/kg i.v. QW, Paclitaxel 10 mg/kg i.p. 7 consecutive days) was “statistically significantly lower”.

As for “GI101: fusion protein: human CD80 fragment, Ig hinge, Fc domain, linker, IL-2 variant (2M) (R38A, F42A); SEQ ID NO: 9”, the “proportion of CD8+ T cells” value in test [2] (anti-CD3ε 1 μg/ml, 7 days, compared with no stimulus, anti-CD3 antibody alone and GI101C1) was “significant increase”. In addition, the “proliferation of CD4+/FoxP3+ Treg cells” value in test [2] (compared with no stimulus and anti-CD3 antibody alone) is given as “significant increase”.
